Measured values taken from patent EP3436024B1, “3-BETA-METHOXY-PREG FOR USE IN THE TREATMENT OF TREATMENT RESISTANT DEPRESSION” (Mapreg, priority 2016, dated 2017).

Legend:
[1] = test system: microtubule-associated protein2 (MAP2); assay: Binding (affinity) by displacement of PREG-3H; conditions: index of binding
[2] = molecular target: purified tubulin and MAP2 (Homo sapiens, UniProt P11137); assay: Microtubule polymerization activity (optical density at 345 nm); format: biochemical; conditions: increase in optical density at 345 nm, 37 °C, in the presence of GTP
Method: Activity is measured by the increase in optical density at 345 nm of a mixture of purified tubulin and MAP2, incubated at 37 °C in the presence of GTP.

[3] = test system: PC12 cells; assay: Stimulation of neuritic sprouting; format: cell-based; conditions: PC12 cells differentiated with NGF (10 ng/ml), steroid 30 µM, 3 days; relative to PREG
Method: Stimulation of neuritic sprouting is conducted on PC12 cells differentiated in the presence of NGF (10 ng/ml) and the steroid being tested (30 µM) for 3 days. For each condition, the average length of the longest 200 neurites […] is measured simultaneously for 3 cultures.

[4] = test system: Wistar Kyoto (WKY) rats; assay: Elevated-plus maze (EPM), WKY rats; format: in vivo, rat; conditions: acute, MAP4343 10 mg/kg s.c., fluoxetine 10 mg/kg, ketamine 30 mg/kg i.p., Fig. 5D
Method: (§1) After a 6-day period of acclimatization, all experimental groups received daily successive subcutaneous (250 µl per rat) and intraperitoneal (1 ml/kg) injections. WI rats received injection of vehicle (sesame oil + saline) while WKY rats were randomly assigned to […], as follow: KWY rats receiving only vehicle (sesame oil + saline) and WKY rats treated with MAP4343 (10 mg/kg, s.c.; rats received in parallel i.p. injections of saline), fluoxetine (10 mg/kg i.p., rats received in parallel s.c. injections of sesame oil) or ketamine (30 mg/kg, i.p.; rats received in parallel s.c. injections of sesame oil) (see Figure 3).
(§2) After, a 6-day period of acclimatization, the acute phase of treatment started for 4 days during behavioral tests were performed (Figure 3). All animals were injected 1h30 before the starting of behavioral test.
We used the elevated-plus maze (EPM) as an assay of anxiety-related behavior in rodents (Walf and Frye, 2007). Rats were initially placed in the center of the plus-maze, consisting of two open arms (50 x 10 cm) and two closed arms (50 x 10 cm enclosed by 40 cm walls), in a 50 lux illuminated room and videotaped during 5 min using a computerized system (VideoTrack V2.5, ViewPoint, Lyon, France). The time spent in the open versus closed arms was blindly measured by two independent experimenters from the recorded video, and the open arm-index was calculated as follow: time in the open arms (sec) / [time in open arms (sec) + time in closed arms (sec)].

[5] = test system: Wistar Kyoto (WKY) rats; assay: Anxious-like behavior: activity in the central square of the open-field arena, WKY rats; format: in vivo, rat; conditions: acute, MAP4343 10 mg/kg s.c., fluoxetine 10 mg/kg i.p., ketamine 30 mg/kg i.p.
Method: as §1, §2
(§3) The animals were individually placed in the open field arena (OFA) (70 x 100 x 70 cm), with a central square (35 x 50 cm), located in a 50 lux illuminated room and videotaped during 3 min using a computerized system (VideoTrack V2.5, ViewPoint, Lyon, France).
(§4) OFA allows firstly the evaluation of total locomotor activity (LMA) thereby measuring the total distance travelled in the arena (in cm). Secondly, measurements of the activity in the center of the arena like (i) the number of entries in the center of arena and (ii) the total time spent in the center of arena (in sec) provide cues of anxiety-like behavior (Prut and Belzung, 2003). All these behavioral parameters were instantaneously measured automatically with the VideoTrack V2.5 software from the videos.

[6] = test system: Wistar Kyoto (WKY) rats; assay: Locomotor activity in the open-field arena, WKY rats; format: in vivo, rat; conditions: acute, fluoxetine 10 mg/kg i.p., ketamine 30 mg/kg i.p., 3 min, Fig. 5A
Method: as §1, §2, §3, §4

[7] = molecular target: T1, human progesterone receptor(PR) (Homo sapiens, UniProt P06401); assay: Test of progesterone receptor agonist activity (MMTV-luciferase transactivation in transfected HEK293T cells); format: cell-based; conditions: 24 hours, increasing amounts, Figure 1
T1 construct: expressed in transfected cells; host or cells: HEK293T
T1 sequence (P06401 1-933): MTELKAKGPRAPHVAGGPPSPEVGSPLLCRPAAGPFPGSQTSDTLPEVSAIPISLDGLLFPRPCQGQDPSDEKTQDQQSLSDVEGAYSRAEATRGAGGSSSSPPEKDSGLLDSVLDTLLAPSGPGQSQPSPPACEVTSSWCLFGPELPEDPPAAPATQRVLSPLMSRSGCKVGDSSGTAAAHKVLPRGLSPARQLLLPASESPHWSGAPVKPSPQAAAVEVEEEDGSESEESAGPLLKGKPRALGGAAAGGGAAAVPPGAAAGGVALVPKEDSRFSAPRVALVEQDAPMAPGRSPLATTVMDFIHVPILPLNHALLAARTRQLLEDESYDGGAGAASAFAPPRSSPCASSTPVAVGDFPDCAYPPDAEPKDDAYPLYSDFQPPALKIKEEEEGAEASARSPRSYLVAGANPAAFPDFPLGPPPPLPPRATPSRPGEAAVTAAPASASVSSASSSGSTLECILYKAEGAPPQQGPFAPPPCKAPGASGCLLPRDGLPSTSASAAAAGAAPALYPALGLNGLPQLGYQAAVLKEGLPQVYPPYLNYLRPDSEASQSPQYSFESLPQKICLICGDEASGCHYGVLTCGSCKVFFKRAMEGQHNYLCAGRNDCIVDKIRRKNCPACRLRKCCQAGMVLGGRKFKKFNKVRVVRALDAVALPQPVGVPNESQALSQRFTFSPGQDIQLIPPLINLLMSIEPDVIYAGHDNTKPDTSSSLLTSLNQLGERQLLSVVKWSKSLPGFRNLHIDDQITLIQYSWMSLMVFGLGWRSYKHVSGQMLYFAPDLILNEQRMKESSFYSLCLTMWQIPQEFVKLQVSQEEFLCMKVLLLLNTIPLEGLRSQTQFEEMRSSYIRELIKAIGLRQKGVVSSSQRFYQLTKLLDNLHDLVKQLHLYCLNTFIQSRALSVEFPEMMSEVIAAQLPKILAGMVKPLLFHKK
Method: The main experimental setting used is the following: HEK293T cells were transiently transfected, using calcium phosphate precipitation technology, with expression vectors pSG5hPR (which permits expression of human progesterone receptor(PR)), pFC31-luc (contains the luciferase gene under the control of the MMTV promoter, which is in turn activated by binding of a progestin to progesterone receptor) and pcbetagal (which permits expression of betagalactosidase), and cultured during 24 hours with increasing amounts of various compositions: • 1. […] Test of progesterone receptor […] activity: transfected cells were cultured with progesterone (1 nM) and increasing amounts of RU486 (a well-known progesterone receptor antagonist) or 3-methoxy-pregnenolone. With this setting, a compound with progesterone receptor antagonist activity competes with progesterone for the occupation of progesterone receptor and results in a progressive loss of transactivation activity when the amount of this compound is increased compared to progesterone.

purified tubulin and MAP2, sequence (P11137 whole entry): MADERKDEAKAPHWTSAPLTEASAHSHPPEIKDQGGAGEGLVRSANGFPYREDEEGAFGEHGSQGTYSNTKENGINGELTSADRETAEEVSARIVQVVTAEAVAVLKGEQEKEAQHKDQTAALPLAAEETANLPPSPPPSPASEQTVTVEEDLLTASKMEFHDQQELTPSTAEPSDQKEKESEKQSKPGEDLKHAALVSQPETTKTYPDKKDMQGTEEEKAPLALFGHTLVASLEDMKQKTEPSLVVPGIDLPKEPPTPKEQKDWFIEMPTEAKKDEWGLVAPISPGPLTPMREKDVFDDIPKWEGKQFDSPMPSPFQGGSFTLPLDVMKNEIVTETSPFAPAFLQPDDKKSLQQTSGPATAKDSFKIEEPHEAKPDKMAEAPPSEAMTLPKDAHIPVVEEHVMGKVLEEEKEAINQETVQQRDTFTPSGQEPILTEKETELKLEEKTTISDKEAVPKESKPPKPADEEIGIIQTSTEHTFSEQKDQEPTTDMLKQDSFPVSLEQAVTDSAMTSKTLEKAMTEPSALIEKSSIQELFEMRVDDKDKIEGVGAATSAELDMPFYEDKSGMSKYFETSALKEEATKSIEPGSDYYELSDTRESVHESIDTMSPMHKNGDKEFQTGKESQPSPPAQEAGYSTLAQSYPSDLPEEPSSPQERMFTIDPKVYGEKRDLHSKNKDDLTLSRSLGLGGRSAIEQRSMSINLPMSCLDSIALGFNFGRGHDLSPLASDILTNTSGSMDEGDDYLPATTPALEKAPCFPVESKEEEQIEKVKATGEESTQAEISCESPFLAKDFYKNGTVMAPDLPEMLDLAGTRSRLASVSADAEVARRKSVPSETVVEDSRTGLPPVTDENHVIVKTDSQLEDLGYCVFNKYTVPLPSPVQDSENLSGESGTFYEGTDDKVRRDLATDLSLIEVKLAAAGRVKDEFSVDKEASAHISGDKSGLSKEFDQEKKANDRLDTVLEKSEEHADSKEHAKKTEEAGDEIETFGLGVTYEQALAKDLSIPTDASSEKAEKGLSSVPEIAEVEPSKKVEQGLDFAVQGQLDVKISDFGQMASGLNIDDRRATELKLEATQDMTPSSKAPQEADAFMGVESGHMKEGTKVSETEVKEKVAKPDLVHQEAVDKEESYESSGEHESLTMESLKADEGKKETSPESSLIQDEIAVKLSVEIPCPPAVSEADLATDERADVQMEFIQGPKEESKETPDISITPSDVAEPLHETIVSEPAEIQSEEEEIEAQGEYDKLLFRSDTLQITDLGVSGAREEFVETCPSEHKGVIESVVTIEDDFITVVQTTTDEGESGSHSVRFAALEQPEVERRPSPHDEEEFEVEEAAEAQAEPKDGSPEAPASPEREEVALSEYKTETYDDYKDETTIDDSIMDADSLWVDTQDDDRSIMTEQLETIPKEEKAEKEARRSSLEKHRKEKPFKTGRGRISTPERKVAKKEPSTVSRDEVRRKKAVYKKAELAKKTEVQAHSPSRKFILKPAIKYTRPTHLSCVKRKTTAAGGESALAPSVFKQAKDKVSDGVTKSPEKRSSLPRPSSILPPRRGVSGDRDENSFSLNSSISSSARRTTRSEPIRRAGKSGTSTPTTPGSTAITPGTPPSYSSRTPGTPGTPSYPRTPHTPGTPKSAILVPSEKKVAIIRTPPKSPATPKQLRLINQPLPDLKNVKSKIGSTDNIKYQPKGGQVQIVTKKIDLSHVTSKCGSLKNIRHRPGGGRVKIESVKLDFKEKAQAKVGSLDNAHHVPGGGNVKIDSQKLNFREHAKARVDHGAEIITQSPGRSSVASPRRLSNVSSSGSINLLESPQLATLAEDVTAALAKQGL

| Compound | Affinity [1] | Activity [2] | Neuritic sprouting [3] | also measured |
| --- | --- | --- | --- | --- |
| CO[C@H]1CC[C@@]2(C)[C@@H](CC[C@@H]3[C@@H]2CC[C@]2(C)[C@@H](C(C)=O)CC[C@@H]32)C1 (stereo in doubt) [3β-methoxy-5a-pregnane-20-one] | 87% of PREG | 10% of PREG | +++ |  |
| CC(=O)[C@H]1[C@H](C)C[C@H]2[C@@H]3CC[C@H]4C[C@@H](O)CC[C@]4(C)[C@H]3CC[C@@]21C [3β-hydroxy-5a-pregnane-20-one-16a-methyl] | 57% of PREG | 53% of PREG |  |  |
| CO[C@H]1CC[C@@]2(C)[C@@H](CC[C@@H]3[C@@H]2CC[C@]2(C)[C@@H]([C@@H](C)O)CC[C@@H]32)C1 [3β-methoxy-5a-pregnane-20β-ol] | 65% of PREG | 65% of PREG | ++ (equal to) |  |
| CO[C@H]1CC[C@@]2(C)C(=CC[C@H]3C4=CC[C@H](C(C)=O)[C@@]4(C)CC[C@@H]32)C1 [3β-methoxy-pregna-5,14-diene-20-one] | 102% of PREG | 50% of PREG | + (stimulation is lower than) |  |
| CO[C@H]1CC[C@@]2(C)C(=CCC3C2CC[C@@]2(C)C3CC[C@@]2(C(C)=O)C(Cl)Cl)C1 (stereo partly drawn) [3β-methoxy-pregna-5-ene-20-one-17a-dichloromethyl] | 53% of PREG | 113% of PREG | +++ |  |
| CC(=O)[C@@]12O[C@@H]1C[C@H]1[C@@H]3CC=C4C[C@@H](O)CC[C@]4(C)[C@H]3CC[C@@]12C [PREG-16a,17a-epoxy] | 41% of PREG | 54% of PREG | + (stimulation is lower than) |  |
| CC(=O)[C@@]12C[C@@H]1C[C@H]1[C@@H]3CC=C4C[C@@H](O)CC[C@]4(C)[C@H]3CC[C@@]12C [PREG-16a,17a-methylene] | 62% of PREG | 49% of PREG | + (stimulation is lower than) |  |
| CC(=O)[C@H]1[C@H](C)C[C@H]2[C@@H]3CC=C4C[C@@H](O)CC[C@]4(C)[C@H]3CC[C@@]21C [PREG-16a-methyl] | 80% of PREG | 70% of PREG | ++ (equal to) |  |
| CC(=O)[C@H]1[C@@H](C)C[C@H]2[C@@H]3CC=C4C[C@@H](O)CC[C@]4(C)[C@H]3CC[C@@]21C [PREG-168-methyl] | 63% of PREG | 67% of PREG |  |  |
| CC(=O)O[C@H](C)[C@H]1CC[C@H]2[C@@H]3CC=C4C[C@@H](O)CC[C@]4(C)[C@H]3CC[C@]12C [Pregna-5-ene-3β,20β-diol-20-acetate] | 60% of PREG | 108% of PREG | ++ (equal to) |  |
| CC(=O)[C@H]1CC[C@H]2[C@@H]3CC=C4C[C@@H](O)CC[C@]4(C)[C@H]3CC[C@]12C [Pregnenolone (PREG), 3β-hydroxypregn-5α-en-20α-one, reference compound] | 100% of PREG | 100% of PREG | ++ (equal to) |  |
| CNC1(c2ccccc2Cl)CCCCC1=O (stereo not shown) [ketamine] |  |  |  | open-arm (OA) index, change when compared to WKY receiving vehicle alone [4]: -29%; number of entries in the central square of OFA, change as compared to WKY receiving only vehicle ([5]; Fig. 5B): failed to significantly modify; time spent in the center of open-field, change as compared to WKY receiving vehicle ([5]; Fig. 5C): did not induce any significant change; locomotor activity (total distance travelled in the open-field arena), change as compared to WKY receiving vehicle ([6]; MAP4343 10 mg/kg s.c.): no significant change; locomotor activity (total distance travelled in the open-field arena), change as compared to MAP4343-treated WKY [6]: no significant change |
| CC(=O)[C@H]1CC[C@H]2[C@@H]3CCC4=CC(=O)CC[C@]4(C)[C@H]3CC[C@]12C [progesterone, reference compound] |  |  |  | progesterone receptor agonist activity (transactivation activity leading to the expression of luciferase) [7]: permits a transactivation activity |
